For 103 molecules, cytotoxicity results are on record in ChEMBL document CHEMBL3507680, “University of Dundee, Gates Library screen for HepG2 cell viability”.

The data set can be described thus: Human HepG2 cell viability assay in 384 well format. The class given is toxicity, cell-based. Also noted: dose 125 nL, time 70.5 hour; cytotoxicity at 70.5 h: concentration not given beside the values. The settings on record: HepG2 cells, read-out: Inhibition.
For `COCc1nc(N(C)C)ncc1C(=O)OC`, the cytotoxicity at 70.5 h was -4.46%.

For the molecule `CCOc1cc(C)c(-c2cc(N)[nH]n2)cc1OCC`, the cytotoxicity at 70.5 h is -8.56%.

In the case of `CC/N=c1\nc(NCC)nc2n1C(O)(Nc1cc(C)ccc1C)CS2` (stereo not drawn), the cytotoxicity at 70.5 h was -10.1%.

In the case of `CCOc1ccc(CNCCCn2ccnc2)cc1OC`, the cytotoxicity at 70.5 h is -13.2%.

For `Cc1nc(Nc2ccc(Cl)cn2)sc1C(=O)NCCCN1CCCCC1`, the cytotoxicity at 70.5 h is -3.37%.

`O=C(O)c1nnn(Cc2cccc(C(F)(F)F)c2)c1-c1ccccn1`: the cytotoxicity at 70.5 h was -7.66%.

Turning to `O=C(O)c1nnn(Cc2cccc(C(F)(F)F)c2)c1-c1ccncc1`, the cytotoxicity at 70.5 h is -8.89%.

In the case of `O=C(c1ccc(-c2ccc(O)nc2)s1)N1CCCCC1`, the cytotoxicity at 70.5 h was -8.32%.

Take `Cn1ncc(C(=O)N2CCN(C(=O)c3ccco3)CC2)c1Cl`: the cytotoxicity at 70.5 h was -13.4%.

Consider `Cc1ccc2cnn(CCC(=O)Nc3nc(C)c(C)s3)c2c1`, for which the cytotoxicity at 70.5 h came to 4.56%.

Take `COCc1nc(N(C)C)ncc1C(=O)Nc1cc(C)cc(C)c1`: the cytotoxicity at 70.5 h was -6.56%.

With `Cc1ccc(CNc2cc(C(=O)N3CCOCC3)nc(C)n2)cc1`, the cytotoxicity at 70.5 h is -9.84%.

Regarding `Cc1nc(NCCc2ccccc2)cc(C(=O)N2CCOCC2)n1`, the cytotoxicity at 70.5 h was determined as 5.2%.

For `CCOC(=O)C1CCN(c2cc(C(=O)N3CCOCC3)nc(C)n2)CC1`, the cytotoxicity at 70.5 h came out at 0.918%.

Regarding `CCC(=O)Nc1nnc(CCOc2ccc(OC)cc2)s1`, the cytotoxicity at 70.5 h came to 3.07%.

Turning to `CCn1c(SCC(=O)O)nnc1C(C)NC(=O)c1ccc(Cl)cc1` (stereo not drawn), the cytotoxicity at 70.5 h is -8.19%.

Regarding `CC(NC(=O)c1ccc(Cl)cc1)c1nnc(SCC(=O)O)n1C` (stereo not drawn), the cytotoxicity at 70.5 h was found to be 18.7%.

For the molecule `CCOC(=O)C1CCN(c2cc(C(=O)N3CCCCC3)nc(C)n2)CC1`, the cytotoxicity at 70.5 h was -8.82%.

`O=C(O)c1ccnc2c(Br)cccc12`: the cytotoxicity at 70.5 h was -3.81%.

Take `CCn1ccc(NC(=O)CN2C(=O)CC(C)(C)c3ccccc32)n1`: the cytotoxicity at 70.5 h was -8.59%.

With `COCCNC(=O)c1nnn(Cc2ccccc2)c1OC`, the cytotoxicity at 70.5 h is -2.5%.

As to `COc1c(C(=O)NCC2CCCO2)nnn1Cc1ccccc1` (stereo not drawn), the cytotoxicity at 70.5 h is -3.19%.

For the molecule `COc1c(C(=O)NCC(C)C)nnn1Cc1ccccc1`, the cytotoxicity at 70.5 h was -4.1%.

In the case of `CCCNC(=O)c1cc(C(C)C)nc(N2CCCC2)n1`, the cytotoxicity at 70.5 h was -8.39%.

For the molecule `Cc1cccc(NC(=O)c2cccc(OCc3nnnn3C)c2)n1`, the cytotoxicity at 70.5 h is 18.7%.

For `CC1CCN(C(=O)C2CC(=O)N(c3cnn(C(C)C)c3)C2)CC1` (stereo not drawn), the cytotoxicity at 70.5 h was -13.2%.

`CC(C)n1cc(N2CC(C(=O)N3CCC(C(N)=O)CC3)CC2=O)cn1` (stereo not drawn): the cytotoxicity at 70.5 h was -11.7%.

Turning to `COc1cc(-c2n[nH]c(CO)n2)cc(OC)c1OC`, the cytotoxicity at 70.5 h turned out to be 29.6%.

For the molecule `CC(=O)NCCOc1c(Cl)cccc1Cl`, the cytotoxicity at 70.5 h came out at 28.8%.

In the case of `Cc1ccc2c(c1)c(C)cc(=O)n2CCCN`, the cytotoxicity at 70.5 h is -4.61%.

Consider `COCCCNC(=O)c1cc(C(C)C)nc(N2CCCC2)n1`, for which the cytotoxicity at 70.5 h is -10.1%.

In the case of `COCCNC(=O)c1cc(C(C)C)nc(N2CCCC2)n1`, the cytotoxicity at 70.5 h is -9.32%.

With `CC(C)n1cc(S(=O)(=O)N2CCCCC2)cn1`, the cytotoxicity at 70.5 h was found to be 9.02%.

Regarding `CCn1c(NCc2ccco2)nc2c(C)nn(C)c2c1=O`, the cytotoxicity at 70.5 h amounted to 31.6%.

Turning to `CCn1cc(CN(C)S(=O)(=O)c2cc(Cl)ccc2Cl)cn1`, the cytotoxicity at 70.5 h is 22.9%.

Take `CCOCCCNC(=O)c1nn(CC)cc1Cl`: the cytotoxicity at 70.5 h amounted to 21.2%.

Regarding `CCOCCCNC(=O)c1cn(CC)nc1C`, the cytotoxicity at 70.5 h was -8.03%.

In the case of `Cc1ccc(NC(=O)c2n[nH]c(-n3cnnc3)n2)cc1C`, the cytotoxicity at 70.5 h worked out at 28.4%.

On to `Cc1ccc(C)c(NC(=O)c2n[nH]c(-n3cnnc3)n2)c1`, for which the cytotoxicity at 70.5 h was -0.779%.

For `Cc1nn(C)c2c(N3CCN(C(=O)c4ccccc4)CC3)ncnc12`, the cytotoxicity at 70.5 h was -2.93%.

As for `CSCc1cccc(S(=O)(=O)N2CCSCC2)c1`, the cytotoxicity at 70.5 h was -4.49%.

For the molecule `Cc1nn(C)c2cn(C(C)C(=O)NCc3cccnc3)nc12` (stereo not drawn), the cytotoxicity at 70.5 h was -1.5%.

Take `Cc1nc(N2CCCCC2)ncc1-c1cc(O)[nH]n1`: the cytotoxicity at 70.5 h was -3.47%.

Consider `CCc1nc(NCC(=O)N2CCOCC2)c2c(n1)c(C)nn2CC`, for which the cytotoxicity at 70.5 h was -9.61%.

For `CCC(=O)Nc1nnc(CCCOc2ccccc2)s1`, the cytotoxicity at 70.5 h was -13.1%.

`Cc1cccc2c1cnn2CCC(=O)NCC(=O)N(C)C`: the cytotoxicity at 70.5 h is -9.91%.

Regarding `CCNC(=O)c1nnc2ccc(N3CCOCC3)cc2n1`, the cytotoxicity at 70.5 h turned out to be 12.6%.

As to `CCN(CC)C(=O)c1nnc2ccc(N3CCOCC3)cc2n1`, the cytotoxicity at 70.5 h was determined as 26.5%.

In the case of `COCc1nc(N(C)C)ncc1C(=O)Nc1ccn(C)n1`, the cytotoxicity at 70.5 h came out at 5.17%.

Turning to `O=C1CC(c2ccccc2)c2snc(C(=O)O)c2N1` (stereo not drawn), the cytotoxicity at 70.5 h stood at 24.7%.

In the case of `CCN1C(=O)C(C)(C)c2cc(NC(=O)c3ccco3)ccc21`, the cytotoxicity at 70.5 h is -7.99%.

Turning to `CCn1ccc(C(=O)NCCCN2CCOCC2)n1`, the cytotoxicity at 70.5 h was -11.6%.

For `Cc1cc(C)n(CCC(=O)N2CCC(c3nc(C(C)C)no3)CC2)n1`, the cytotoxicity at 70.5 h is -5.07%.

For `CC(C)C(=O)NCCCn1ncc2c(Cl)cccc21`, the cytotoxicity at 70.5 h was -0.542%.

On to `Nc1ncc2c(n1)CN(C1CCCC1)C2=O`, for which the cytotoxicity at 70.5 h was -7.28%.

In the case of `CC1(C)CC(N2Cc3nc(N4CCOCC4)ncc3C2=O)CC(C)(C)N1`, the cytotoxicity at 70.5 h came out at 13.3%.

For the molecule `Cc1cccc(Cn2ccc(NS(C)(=O)=O)n2)c1`, the cytotoxicity at 70.5 h was -4.99%.

As to `Cc1ccc(Cn2ccc(NS(C)(=O)=O)n2)cc1`, the cytotoxicity at 70.5 h is -10.8%.

On to `O=C(COCc1nc(-c2ccncc2)no1)N1CCCCCC1`, for which the cytotoxicity at 70.5 h was -5.87%.

As to `COc1ccc(Nc2nc3c(C)nn(C)c3c(=O)n2C)c(OC)c1`, the cytotoxicity at 70.5 h is -18.2%.

With `CCOc1ccccc1Nc1nc2c(C)nn(C)c2c(=O)n1C`, the cytotoxicity at 70.5 h stood at 8.71%.

For `CCN1CCN(c2nc(C(C)C)nc3c(C)nn(CC)c23)CC1`, the cytotoxicity at 70.5 h worked out at 13.6%.

For the molecule `CCCc1nc(N2CCN(CC)CC2)c2c(n1)c(C)nn2CC`, the cytotoxicity at 70.5 h is -5.26%.

Turning to `CCn1cc(N)c(C(=O)NCc2cnn(C)c2)n1`, the cytotoxicity at 70.5 h is -7.78%.

As for `CNc1cc(C)nc(C2CN(Cc3cncs3)CCO2)c1` (stereo not drawn), the cytotoxicity at 70.5 h is -11.5%.

Consider `Cc1nc(C2CCCN2C(=O)CCc2ccccc2)ncc1C(N)=O` (stereo not drawn), for which the cytotoxicity at 70.5 h is -11.8%.

As for `O=C(c1cnco1)N1C[C@@H](O)[C@H](Oc2cccc(F)c2)C1`, the cytotoxicity at 70.5 h was determined as 14.4%.

On to `O=C(O)CN1CCOCC(Cc2ccc(Cl)cc2)C1` (stereo not drawn), for which the cytotoxicity at 70.5 h is -7.85%.

For the molecule `Cc1ccnc(C2CCCN2C(=O)c2cnccn2)n1` (stereo not drawn), the cytotoxicity at 70.5 h is -9.28%.

As to `COCCC(=O)N1CCCC1c1nccc(C)n1` (stereo not drawn), the cytotoxicity at 70.5 h is -12.1%.

As for `NC(=O)CN1CCOCC(Cc2ccccc2)C1` (stereo not drawn), the cytotoxicity at 70.5 h was -11.7%.

As for `Cc1ccccc1CN(C)C(=O)c1cc(C2CCCN2C)ccn1` (stereo not drawn), the cytotoxicity at 70.5 h was 10.5%.

Take `Cc1ncsc1CN1CCN(C2CCOCC2)CC(C(N)=O)C1` (stereo not drawn): the cytotoxicity at 70.5 h was determined as 10.5%.

Turning to `c1ccc(-c2nnc(C3CCCN(CC4CCCCC4)C3)o2)nc1` (stereo not drawn), the cytotoxicity at 70.5 h is -7.93%.

As for `CCC(=O)N1CCC(c2nc(O)c3c(n2)CN(C2CCCCC2)CC3)C1` (stereo not drawn), the cytotoxicity at 70.5 h turned out to be 31.2%.

With `O=C(c1cccnc1)N1CCC(c2nc(O)cc(-c3ccncc3)n2)C1` (stereo not drawn), the cytotoxicity at 70.5 h is -10.5%.

For the molecule `O=C(c1ccccn1)N1CCC(c2nc(O)cc(-c3ccncc3)n2)C1` (stereo not drawn), the cytotoxicity at 70.5 h is -5.15%.

Consider `CC(=O)N1CCC(c2ccnc(Nc3cncnc3)n2)CC1`, for which the cytotoxicity at 70.5 h was -8.15%.

Regarding `O=C(C1CC1)N1CCc2nc(C3CCN(C(=O)C4CC4)C3)nc(O)c2C1` (stereo not drawn), the cytotoxicity at 70.5 h was -10%.

`NC(=O)CN1CCCC(CCCc2ccccn2)(C(N)=O)C1` (stereo not drawn): the cytotoxicity at 70.5 h was -3%.

Turning to `O=C(Cn1ccnc1)N1C[C@@H]2CC[C@H](Oc3cccc(F)c3)[C@@H]2C1`, the cytotoxicity at 70.5 h is -6.97%.

As to `CS(=O)(=O)N1CCCC1c1cccc(Cc2ccccc2F)n1` (stereo not drawn), the cytotoxicity at 70.5 h is -6.97%.

On to `Cc1nc(NC2CCCC2)cc(C2CCN2C(=O)c2cnn(C)c2)n1` (stereo not drawn), for which the cytotoxicity at 70.5 h was -3.93%.

As to `CCC(=O)N1CCC(Cc2cc(Nc3ncccn3)ncn2)CC1`, the cytotoxicity at 70.5 h was -4.23%.

With `O=C(C1CCC1)N1CCCC(c2ccnc(Nc3cnccn3)n2)C1` (stereo not drawn), the cytotoxicity at 70.5 h was -7.38%.

Take `CN(C)C(=O)C1CN(Cc2nccs2)CCN(S(C)(=O)=O)C1` (stereo not drawn): the cytotoxicity at 70.5 h is -4.9%.

As to `Cc1cc(-c2cnc(NC3CCCC3)nc2-c2ccco2)on1`, the cytotoxicity at 70.5 h is -6.66%.

Regarding `Cc1cc(-c2cnc(NC3CCCC3)nc2-c2ccc(C)o2)on1`, the cytotoxicity at 70.5 h is -5.77%.

As for `CCn1cc(CN2CCc3nc(-c4ccccn4)nc(O)c3C2)cn1`, the cytotoxicity at 70.5 h is -10%.

In the case of `C=Cn1ncc(CN2CCc3nc(-c4ccncc4)nc(O)c3C2)c1C`, the cytotoxicity at 70.5 h was -4.39%.

Regarding `Cc1cc(-c2cnc(NCc3ccc4c(c3)OCO4)nc2C(C)C)on1`, the cytotoxicity at 70.5 h was -4.67%.

As for `Cc1cc(-c2cnc(NC3CC3)nc2-c2ccco2)on1`, the cytotoxicity at 70.5 h is -12.6%.

For the molecule `COc1ccccc1CN1CCc2c(nc(-c3ccccn3)[nH]c2=O)C1`, the cytotoxicity at 70.5 h was 12.7%.

Take `O=C(O)C1(Cc2cccc(-c3ccc(F)cc3)c2)CCOCC1`: the cytotoxicity at 70.5 h is 9.21%.

For the molecule `Cc1ncncc1C(=O)N1CCC(O)(CN(C)Cc2ccc(F)cc2)C1` (stereo not drawn), the cytotoxicity at 70.5 h was -5.31%.

Consider `CC(=O)NC(=O)C1(CCCc2ccncc2)CCN1` (stereo not drawn), for which the cytotoxicity at 70.5 h was -2.25%.

With `NC(=O)C1(c2cnccn2)CCCN1Cc1ccc(F)c(F)c1` (stereo not drawn), the cytotoxicity at 70.5 h turned out to be 7.58%.

For `CC(=O)N1CCCC1c1cncc(Oc2ccc(F)cc2)n1` (stereo not drawn), the cytotoxicity at 70.5 h is -3.89%.

`Cc1ccc(C(=O)N2CCOC(c3nc(-c4ncccn4)no3)C2)cc1` (stereo not drawn): the cytotoxicity at 70.5 h was -2.85%.

In the case of `Cc1noc2nc(C3CCCN(Cc4ccncc4)C3)cc(C(F)F)c12` (stereo not drawn), the cytotoxicity at 70.5 h was -3.5%.

In the case of `CNC(=O)C1(CCCc2ccncc2)CCCCN1` (stereo not drawn), the cytotoxicity at 70.5 h is 15.5%.

For `O=C(NCCn1nc(C2CCNC2)c2cccnc21)c1ccccc1` (stereo not drawn), the cytotoxicity at 70.5 h is -4.57%.

Turning to `O=C(NCCn1nc(C2CCNC2)c2cccnc21)c1ccccn1` (stereo not drawn), the cytotoxicity at 70.5 h is -2.16%.
